Consider 22 compounds from patent publication US20260285855A1, “HETEROARYL DERIVATIVES AS DDRS INHIBITORS” (CHIESI FARMACEUTICI S.P.A., priority 2023, published 2026).

As usually defined, the Ki is the equilibrium dissociation constant of an inhibitor or competing ligand from its target.

The target in one assay is T1, DDR1 (Homo sapiens, UniProt Q08345).
T1 construct: purchased Carna Biosciences
Kind of assay: LanthaScreen Europium Kinase Binding assay, DDR1. The note with it: 5 nM DDR1, 20 nM Kinase Tracer 178, 1 h at rt; Ki from IC50 by Cheng-Prusoff; read-out: Ki DDR1. The method, then:
(§1) DDR1 and DDR2 binding assays were performed using Life Technologies LanthaScreen™ Europium Kinase Binding assay. […] IC50 values were determined in GraphPad Prism 7.0 software, using 4 parameter model: log (inhibitor) vs. response. IC50 values were converted in Ki using the Cheng-Prusoff equation (Ki-IC50/(1+ [Tracer]/Kd).
On the technique in general: In TR-FRET formats the signal depends on donor and acceptor labels being close together.

In another assay the target is T2, DDR2 (Homo sapiens, UniProt Q16832).
T2 construct: purchased Life Technologies
T2 sequence (Q16832 22-855): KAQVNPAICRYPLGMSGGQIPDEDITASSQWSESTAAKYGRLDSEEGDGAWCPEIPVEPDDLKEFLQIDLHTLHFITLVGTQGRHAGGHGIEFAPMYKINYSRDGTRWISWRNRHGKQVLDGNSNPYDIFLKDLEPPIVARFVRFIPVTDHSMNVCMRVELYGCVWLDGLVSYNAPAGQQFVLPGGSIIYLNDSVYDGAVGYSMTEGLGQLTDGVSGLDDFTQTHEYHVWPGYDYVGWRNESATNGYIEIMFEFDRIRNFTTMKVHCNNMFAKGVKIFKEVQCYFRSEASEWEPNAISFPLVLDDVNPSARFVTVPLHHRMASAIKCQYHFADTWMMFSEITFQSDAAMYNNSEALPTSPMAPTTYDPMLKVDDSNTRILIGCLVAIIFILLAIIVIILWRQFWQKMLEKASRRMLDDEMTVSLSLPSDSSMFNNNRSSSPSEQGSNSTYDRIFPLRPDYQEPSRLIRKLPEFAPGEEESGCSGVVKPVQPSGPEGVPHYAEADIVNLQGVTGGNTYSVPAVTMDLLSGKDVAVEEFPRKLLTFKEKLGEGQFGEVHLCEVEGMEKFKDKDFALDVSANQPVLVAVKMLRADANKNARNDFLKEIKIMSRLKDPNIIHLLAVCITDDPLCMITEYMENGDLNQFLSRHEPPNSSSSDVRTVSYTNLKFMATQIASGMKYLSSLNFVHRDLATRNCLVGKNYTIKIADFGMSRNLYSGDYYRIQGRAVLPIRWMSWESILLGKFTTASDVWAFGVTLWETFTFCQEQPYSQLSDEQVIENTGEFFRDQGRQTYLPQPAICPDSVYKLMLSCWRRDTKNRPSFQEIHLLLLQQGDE
Briefly: LanthaScreen Europium Kinase Binding assay, DDR2. The note with it: 5 nM DDR2, 10 nM Kinase Tracer 178, 1 h at rt; Ki from IC50 by Cheng-Prusoff; read-out: Ki DDR2. On the procedure: as §1

T1 sequence (Q08345 19-913): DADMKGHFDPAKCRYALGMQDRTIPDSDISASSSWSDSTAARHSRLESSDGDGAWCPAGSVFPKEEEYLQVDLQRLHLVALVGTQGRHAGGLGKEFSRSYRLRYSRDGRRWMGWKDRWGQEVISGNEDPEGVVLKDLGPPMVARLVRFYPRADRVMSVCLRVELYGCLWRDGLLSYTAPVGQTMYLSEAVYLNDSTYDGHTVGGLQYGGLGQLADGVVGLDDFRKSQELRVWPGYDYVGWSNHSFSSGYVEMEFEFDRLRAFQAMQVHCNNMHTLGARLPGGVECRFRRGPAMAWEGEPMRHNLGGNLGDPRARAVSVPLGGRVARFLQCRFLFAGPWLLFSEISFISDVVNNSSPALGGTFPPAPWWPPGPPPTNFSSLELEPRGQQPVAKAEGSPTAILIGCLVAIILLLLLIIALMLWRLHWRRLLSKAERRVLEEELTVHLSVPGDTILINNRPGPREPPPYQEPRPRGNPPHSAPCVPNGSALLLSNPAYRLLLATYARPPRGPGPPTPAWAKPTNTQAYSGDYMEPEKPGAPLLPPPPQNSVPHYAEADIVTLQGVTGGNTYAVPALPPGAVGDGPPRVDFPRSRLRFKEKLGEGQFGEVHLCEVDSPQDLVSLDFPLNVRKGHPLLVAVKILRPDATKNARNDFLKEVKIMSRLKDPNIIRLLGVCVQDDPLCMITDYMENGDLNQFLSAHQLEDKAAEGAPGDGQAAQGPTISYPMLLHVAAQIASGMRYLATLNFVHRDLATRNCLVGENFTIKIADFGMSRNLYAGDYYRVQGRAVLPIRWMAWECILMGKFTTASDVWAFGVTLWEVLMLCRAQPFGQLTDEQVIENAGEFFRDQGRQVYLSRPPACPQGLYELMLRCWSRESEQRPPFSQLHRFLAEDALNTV

As to `Nc1ccn2ncc(C(=O)N3CC4(CC(NC(=O)Nc5cccc(C(F)(F)F)c5)C4)C3)c2c1` [Example 184, 1-(2-(5-aminopyrazolo[1,5-a]pyridine-3-carbonyl)-2-azaspiro[3.3]heptan-6-yl)-3-(3-(trifluoromethyl)phenyl)urea], the Ki at DDR1 and on DDR2 was under 5 nM each time.

As for `O=C(Nc1cccc(C(F)(F)F)c1)NC1CC2(C1)CN(C(=O)c1cnn3ccc(N4CCC(O)C4)cc13)C2` (centres unmarked) [Example 185, 1-(2-(5-(3-hydroxypyrrolidin-1-yl)pyrazolo[1,5-a]pyridine-3-carbonyl)-2-azaspiro[3.3]heptan-6-yl)-3-(3-(trifluoromethyl)phenyl)urea], the inhibition constant (Ki) at DDR1 and on DDR2 was under 5 nM throughout.

Take `CN1CCN(c2ccn3ncc(C(=O)N4CC5(CC(NC(=O)Nc6cccc(C(F)(F)F)c6)C5)C4)c3c2)C(=O)C1` [Example 186, 1-(2-(5-(4-methyl-2-oxopiperazin-1-yl)pyrazolo[1,5-a]pyridine-3-carbonyl)-2-azaspiro[3.3]heptan-6-yl)-3-(3-(trifluoromethyl)phenyl)urea]: the Ki is under 5 nM on DDR1 and 5 to 25 nM at DDR2.

With `Cn1ccn2ncc(C(=O)N3CC4(CC(N(C(=O)Nc5cccc(C(F)(F)F)c5)C5CC5)C4)C3)c12` [Example 187, 1-cyclopropyl-1-(2-(1-methyl-1H-imidazo[1,2-b]pyrazole-7-carbonyl)-2-azaspiro[3.3]heptan-6-yl)-3-(3-(trifluoromethyl)phenyl)urea], the Ki on DDR1 was under 5 nM; at DDR2 it was 5 to 25 nM.

For the compound `Cc1ccc(OC(F)(F)F)cc1NC(=O)N(C)C1CC2(C1)CN(C(=O)c1ccnc3[nH]ncc13)C2` [Example 188, 1-(2-(1H-pyrazolo[3,4-b]pyridine-4-carbonyl)-2-azaspiro[3.3]heptan-6-yl)-1-methyl-3-(2-methyl-5-(trifluoromethoxy)phenyl)urea], the Ki was under 5 nM at DDR1 and 5 to 25 nM at DDR2.

Consider `CN(C(=O)Nc1cc(OC(F)(F)F)ccn1)C1CC2(C1)CN(C(=O)c1ccnc3[nH]ncc13)C2` [Example 189, 1-(2-(1H-pyrazolo[3,4-b]pyridine-4-carbonyl)-2-azaspiro[3.3]heptan-6-yl)-1-methyl-3-(4-(trifluoromethoxy)pyridin-2-yl)urea], for which the Ki at DDR1 and on DDR2 was 5 to 25 nM in each case.

With `CN(C(=O)Nc1cc(OC(F)(F)F)ccn1)C1CC2(C1)CN(C(=O)c1cnn3ccncc13)C2` [Example 190, 1-methyl-1-(2-(pyrazolo[1,5-a]pyrazine-3-carbonyl)-2-azaspiro[3.3]heptan-6-yl)-3-(4-(trifluoromethoxy)pyridin-2-yl)urea], the inhibition constant (Ki) lay in the range of 5 to 25 nM on DDR1 and 25 to 100 nM on DDR2.

As to `CC1(NC(=O)Nc2cccc(C(F)(F)F)c2)CC2(CN(C(=O)c3ncnc4ccsc34)C2)C1` [Example 191], the results for the Ki at DDR1 and at DDR2 were under 5 nM and 5 to 25 nM, respectively.

For the compound `Cn1cc(N2CCOCC2)n2ncc(C(=O)N3CC4(CC(NC(=O)Nc5cccc(C(F)(F)F)c5)C4)C3)c12` [Example 192, 1-(2-(1-methyl-3-morpholino-1H-imidazo[1,2-b]pyrazole-7-carbonyl)-2-azaspiro[3.3]heptan-6-yl)-3-(3-(trifluoromethyl)phenyl)urea], the Ki at DDR1 and on DDR2 was 25 to 100 nM throughout.

As to `Cc1cc(C(F)(F)F)cc(NC(=O)N(C)C2CC3(C2)CN(C(=O)c2cnn4ccn(C)c24)C3)c1F` [Example 193, 3-(2-fluoro-3-methyl-5-(trifluoromethyl)phenyl)-1-methyl-1-(2-(1-methyl-1H-imidazo[1,2-b]pyrazole-7-carbonyl)-2-azaspiro[3.3]heptan-6-yl)urea], the inhibition constant Ki on DDR1 is under 5 nM; on DDR2 it was 5 to 25 nM.

For `CSCCn1ccn2ncc(C(=O)N3CC4(CC(NC(=O)Nc5cccc(C(F)(F)F)c5)C4)C3)c12` [Example 194, 1-(2-(1-(2-(methylthio)ethyl)-1H-imidazo[1,2-b]pyrazole-7-carbonyl)-2-azaspiro[3.3]heptan-6-yl)-3-(3-(trifluoromethyl)phenyl)urea], the Ki on DDR1 is under 5 nM; on DDR2, 5 to 25 nM.

As to `CN(C(=O)Nc1cccc(C(F)(F)F)c1)C1CC2(C1)CN(C(=O)c1cnn3ccn(CCF)c13)C2` [Example 195, 1-(2-(1-(2-fluoroethyl)-1H-imidazo[1,2-b]pyrazole-7-carbonyl)-2-azaspiro[3.3]heptan-6-yl)-1-methyl-3-(3-(trifluoromethyl)phenyl)urea], the figures for the Ki at DDR1 and at DDR2 were under 5 nM and 5 to 25 nM, respectively.

`CSCn1ccn2ncc(C(=O)N3CC4(CC(NC(=O)Nc5cccc(C(F)(F)F)c5)C4)C3)c12` [Example 196, 1-(2-(1-((methylthio)methyl)-1H-imidazo[1,2-b]pyrazole-7-carbonyl)-2-azaspiro[3.3]heptan-6-yl)-3-(3-(trifluoromethyl)phenyl)urea]: the Ki is under 5 nM at DDR1 and 5 to 25 nM on DDR2.

With `CN(C(=O)Nc1cncc(Br)c1)C1CC2(C1)CN(C(=O)c1cnn3ccn(C)c13)C2` [Example 197, 3-(5-bromopyridin-3-yl)-1-methyl-1-(2-(1-methyl-1H-imidazo[1,2-b]pyrazole-7-carbonyl)-2-azaspiro[3.3]heptan-6-yl)urea], the results for the Ki at DDR1 and on DDR2 were under 5 nM and 5 to 25 nM, respectively.

Take `CN(C(=O)Nc1cccc(C2(C(F)(F)F)CC2)c1)C1CC2(C1)CN(C(=O)c1cnn3ccn(C)c13)C2` [Example 198, 1-methyl-1-(2-(1-methyl-1H-imidazo[1,2-b]pyrazole-7-carbonyl)-2-azaspiro[3.3]heptan-6-yl)-3-(3-(1-(trifluoromethyl)cyclopropyl)phenyl)urea]: the inhibition constant Ki on DDR1 and on DDR2 was under 5 nM in each case.

In the case of `CN(C(=O)Nc1cc(C(C)(C)C(F)(F)F)on1)C1CC2(C1)CN(C(=O)c1cnn3ccn(C)c13)C2` [Example 199, 1-methyl-1-(2-(1-methyl-1H-imidazo[1,2-b]pyrazole-7-carbonyl)-2-azaspiro[3.3]heptan-6-yl)-3-(5-(1,1,1-trifluoro-2-methylpropan-2-yl)isoxazol-3-yl)urea], the Ki is under 5 nM on DDR1 and 5 to 25 nM at DDR2.

As to `CN(C(=O)Nc1cc(Br)ccn1)C1CC2(C1)CN(C(=O)c1cnn3ccn(C)c13)C2` [Example 200, 3-(4-bromopyridin-2-yl)-1-methyl-1-(2-(1-methyl-1H-imidazo[1,2-b]pyrazole-7-carbonyl)-2-azaspiro[3.3]heptan-6-yl)urea], the inhibitory constant (Ki) on DDR1 was under 5 nM; on DDR2 it was 5 to 25 nM.

Take `Cc1ccc(OC(F)(F)F)cc1NC(=O)N(C)C1CC2(C1)CN(C(=O)c1ncnc3[nH]ccc13)C2` [Example 201, 1-(2-(7H-pyrrolo[2,3-d]pyrimidine-4-carbonyl)-2-azaspiro[3.3]heptan-6-yl)-1-methyl-3-(2-methyl-5-(trifluoromethoxy)phenyl)urea]: the Ki was under 5 nM at DDR1 and 5 to 25 nM on DDR2.

`COCCn1ccn2ncc(C(=O)N3CC4(CC(N(C)C(=O)Nc5cc(OC(F)(F)F)ccn5)C4)C3)c12` [Example 202, 1-(2-(1-(2-methoxyethyl)-1H-imidazo[1,2-b]pyrazole-7-carbonyl)-2-azaspiro[3.3]heptan-6-yl)-1-methyl-3-(4-(trifluoromethoxy)pyridin-2-yl)urea]: the values for the Ki on DDR1 and on DDR2 were under 5 nM and 25 to 100 nM, respectively.

Turning to `COCCn1ccn2ncc(C(=O)N3CC4(CC(N(C)C(=O)Nc5cccc(C(F)(F)F)c5)C4)C3)c12` [Example 203, 1-(2-(1-(2-methoxyethyl)-1H-imidazo[1,2-b]pyrazole-7-carbonyl)-2-azaspiro[3.3]heptan-6-yl)-1-methyl-3-(3-(trifluoromethyl)phenyl)urea], the figures for the Ki on DDR1 and at DDR2 were under 5 nM and 5 to 25 nM, respectively.

In the case of `CN(C(=O)Nc1cncc(OC(F)(F)F)c1)C1CC2(C1)CN(C(=O)c1ncnc3[nH]ccc13)C2` [Example 204, 1-(2-(7H-pyrrolo[2,3-d]pyrimidine-4-carbonyl)-2-azaspiro[3.3]heptan-6-yl)-1-methyl-3-(5-(trifluoromethoxy)pyridin-3-yl)urea], the Ki at DDR1 was under 5 nM; at DDR2 it was 5 to 25 nM.

As to `CN(C(=O)Nc1cc(OC(F)(F)F)ccn1)C1CC2(C1)CN(C(=O)c1ncnc3[nH]ccc13)C2` [Example 205, 1-(2-(7H-pyrrolo[2,3-d]pyrimidine-4-carbonyl)-2-azaspiro[3.3]heptan-6-yl)-1-methyl-3-(4-(trifluoromethoxy)pyridin-2-yl)urea], the Ki on DDR1 was under 5 nM; on DDR2 it was 5 to 25 nM.
